# Results reported in patent US9023789B2, “Amylin analogs and pharmaceutical compositions thereof” (Novo Nordisk A/S, priority 2012, dated 2015).
# Numbered stars: 1 amine (or outer) side, 2 acyl side, 3 side chain; on linkers, the order of the positions; unused ones are H or OH. Bridge positions count the residues as written; N and C are the ends. Side chains are listed from the residue outwards. Peptide text beside a SMILES is read from it. * marks the point of attachment. C20 diacid = O=C(O)CCCCCCCCCCCCCCCCCCC(=O)*; γGlu = O=C(O)[C@H](CCC(=O)[*:2])N[*:1]; AEEA = NCCOCCOCC(=O)O
# Biological target: T1, human calcitonin (a) receptor in BHK570 cells (Homo sapiens, UniProt P30988)
# T1 construct: expressed in transfected cells
# T1 sequence (P30988 25-474): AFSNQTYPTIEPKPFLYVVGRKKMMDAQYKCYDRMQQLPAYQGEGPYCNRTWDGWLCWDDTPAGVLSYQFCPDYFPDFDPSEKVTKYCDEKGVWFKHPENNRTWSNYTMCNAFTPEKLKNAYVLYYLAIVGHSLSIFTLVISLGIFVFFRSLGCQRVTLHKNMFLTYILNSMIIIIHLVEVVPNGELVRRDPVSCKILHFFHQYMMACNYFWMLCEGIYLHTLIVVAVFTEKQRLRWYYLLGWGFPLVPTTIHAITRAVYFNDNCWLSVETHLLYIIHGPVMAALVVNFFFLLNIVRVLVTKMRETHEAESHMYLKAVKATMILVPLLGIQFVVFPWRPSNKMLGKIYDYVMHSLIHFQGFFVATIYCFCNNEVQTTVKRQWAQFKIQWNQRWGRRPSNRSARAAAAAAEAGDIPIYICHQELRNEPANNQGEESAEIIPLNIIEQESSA
# Test: ASSAY (II)a functional assay, human calcitonin receptor (CRE luciferase)
# Assay type: cell-based
# Conditions: read-out: hCTR funct. EC50
# Outline: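 BHK cells stably carrying a CRE-luciferase reporter plus calcitonin receptor, or calcitonin receptor with RAMP-3 for the amylin 3(a) receptor, were seeded and kept overnight at 37° C. Compounds were added in assay medium with 10% FBS and 10 mM Hepes, pH 7.4, for 3 hours at 37° C, then luminescence was counted.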
row,EC50 [nM],SMILES
1,2.75,CC[C@H](C)[C@H](NC(=O)[C@H](C)NC(=O)CNC(=O)[C@H](Cc1ccccc1)NC(=O)[C@H](CC(N)=O)NC(=O)[C@@H]1CCCN1C(=O)[C@H](CO)NC(=O)[C@H](CO)NC(=O)[C@H](Cc1c[nH]cn1)NC(=O)[C@H](CCCNC(=N)N)NC(=O)[C@H](CC(C)C)NC(=O)[C@H](Cc1ccccc1)NC(=O)[C@H](CCC(=O)O)NC(=O)[C@H](C)NC(=O)[C@H](CC(C)C)NC(=O)[C@H](CCCNC(=N)N)NC(=O)[C@H](CCC(N)=O)NC(=O)[C@@H](NC(=O)[C@H](C)NC(=O)[C@@H]1CSSC[C@H](NC(=O)[C@@H](N)CCCCNC(=O)CC[C@H](NC(=O)CCCCCCCCCCCCCCCCCCC(=O)O)C(=O)O)C(=O)N[C@@H](CC(N)=O)C(=O)N[C@@H]([C@@H](C)O)C(=O)N[C@@H](C)C(=O)N[C@@H]([C@@H](C)O)C(=O)N1)[C@@H](C)O)C(=O)N1CCC[C@H]1C(=O)N[C@@H](CO)C(=O)N[C@@H](CO)C(=O)N[C@H](C(=O)N[C@@H](CC(N)=O)C(=O)N[C@H](C(=O)NCC(=O)N[C@@H](CCCNC(=N)N)C(=O)N[C@@H](CCC(=O)O)C(=O)N[C@H](C(=O)N[C@@H](Cc1ccc(O)cc1)C(N)=O)[C@@H](C)O)C(C)C)[C@@H](C)O [Example 108] (H-K([γGlu-C20 diacid])CNTATCATQRLAEFLRHSSPNFGAIPSSTNVGRETY-NH2; disulfide 2-7; N-terminus assumed)
2,1.73,CC[C@H](C)[C@H](NC(=O)[C@H](C)NC(=O)CNC(=O)[C@H](Cc1ccccc1)NC(=O)[C@H](CC(N)=O)NC(=O)[C@@H]1CCCN1C(=O)[C@H](CO)NC(=O)[C@H](CO)NC(=O)[C@H](Cc1c[nH]cn1)NC(=O)[C@H](CCCNC(=N)N)NC(=O)[C@H](CC(C)C)NC(=O)[C@H](Cc1ccccc1)NC(=O)[C@H](Cc1c[nH]cn1)NC(=O)[C@H](C)NC(=O)[C@H](CC(C)C)NC(=O)[C@H](CCCNC(=N)N)NC(=O)[C@H](CCC(N)=O)NC(=O)[C@@H](NC(=O)[C@H](C)NC(=O)[C@@H]1CSSC[C@H](NC(=O)[C@@H](N)CCCCNC(=O)CC[C@H](NC(=O)CCCCCCCCCCCCCCCCCCC(=O)O)C(=O)O)C(=O)N[C@@H](CC(N)=O)C(=O)N[C@@H]([C@@H](C)O)C(=O)N[C@@H](C)C(=O)N[C@@H]([C@@H](C)O)C(=O)N1)[C@@H](C)O)C(=O)N1CCC[C@H]1C(=O)N[C@@H](CO)C(=O)N[C@@H](CO)C(=O)N[C@H](C(=O)N[C@@H](CC(N)=O)C(=O)N[C@H](C(=O)NCC(=O)N[C@@H](Cc1c[nH]cn1)C(=O)N[C@@H](CC(N)=O)C(=O)N[C@H](C(=O)N[C@@H](Cc1ccc(O)cc1)C(N)=O)[C@@H](C)O)C(C)C)[C@@H](C)O [Example 81] (H-K([γGlu-C20 diacid])CNTATCATQRLAHFLRHSSPNFGAIPSSTNVGHNTY-NH2; disulfide 2-7; N-terminus assumed)
3,3.43,CC[C@H](C)[C@H](NC(=O)[C@H](C)NC(=O)CNC(=O)[C@H](Cc1ccccc1)NC(=O)[C@H](CC(N)=O)NC(=O)[C@@H]1CCCN1C(=O)[C@H](CO)NC(=O)[C@H](CO)NC(=O)[C@H](Cc1c[nH]cn1)NC(=O)[C@H](CCCNC(=N)N)NC(=O)[C@H](CC(C)C)NC(=O)[C@H](Cc1ccccc1)NC(=O)[C@H](CCC(=O)O)NC(=O)[C@H](C)NC(=O)[C@H](CC(C)C)NC(=O)[C@H](CCCNC(=N)N)NC(=O)[C@H](CCC(N)=O)NC(=O)[C@@H](NC(=O)[C@H](C)NC(=O)[C@@H]1CSSC[C@H](NC(=O)[C@H](CCCCN)NC(=O)CC[C@H](NC(=O)CC[C@H](NC(=O)CCCCCCCCCCCCCCCCCCC(=O)O)C(=O)O)C(=O)O)C(=O)N[C@@H](CC(N)=O)C(=O)N[C@@H]([C@@H](C)O)C(=O)N[C@@H](C)C(=O)N[C@@H]([C@@H](C)O)C(=O)N1)[C@@H](C)O)C(=O)N1CCC[C@H]1C(=O)N[C@@H](CO)C(=O)N[C@@H](CO)C(=O)N[C@H](C(=O)N[C@@H](CC(N)=O)C(=O)N[C@H](C(=O)NCC(=O)N[C@@H](CO)C(=O)N[C@@H](CC(N)=O)C(=O)N[C@H](C(=O)N[C@@H](Cc1ccc(O)cc1)C(N)=O)[C@@H](C)O)C(C)C)[C@@H](C)O [Example 15] ({C20 diacid-γGlu-γGlu}-KCNTATCATQRLAEFLRHSSPNFGAIPSSTNVGSNTY-NH2; disulfide 2-7 (inferred))
4,7.43,CC[C@H](C)[C@H](NC(=O)[C@H](C)NC(=O)CNC(=O)[C@H](Cc1ccccc1)NC(=O)[C@H](CC(N)=O)NC(=O)[C@@H]1CCCN1C(=O)[C@H](CO)NC(=O)[C@H](CO)NC(=O)[C@H](Cc1c[nH]cn1)NC(=O)[C@H](CCCNC(=N)N)NC(=O)[C@H](CC(C)C)NC(=O)[C@H](Cc1ccccc1)NC(=O)[C@H](CCC(=O)O)NC(=O)[C@H](C)NC(=O)[C@H](CC(C)C)NC(=O)[C@H](CCCNC(=N)N)NC(=O)[C@H](CCC(N)=O)NC(=O)[C@@H](NC(=O)[C@H](C)NC(=O)[C@@H]1CSSC[C@H](NC(=O)[C@@H](N)CCCCNC(=O)CC[C@H](NC(=O)CC[C@H](NC(=O)CCCCCCCCCCCCCCCCCCC(=O)O)C(=O)O)C(=O)O)C(=O)N[C@@H](CC(N)=O)C(=O)N[C@@H]([C@@H](C)O)C(=O)N[C@@H](C)C(=O)N[C@@H]([C@@H](C)O)C(=O)N1)[C@@H](C)O)C(=O)N1CCC[C@H]1C(=O)N[C@@H](CO)C(=O)N[C@@H](CO)C(=O)N[C@H](C(=O)N[C@@H](CC(N)=O)C(=O)N[C@H](C(=O)NCC(=O)N[C@@H](CCCNC(=N)N)C(=O)N[C@@H](CCC(=O)O)C(=O)N[C@H](C(=O)N[C@@H](Cc1ccc(O)cc1)C(N)=O)[C@@H](C)O)C(C)C)[C@@H](C)O [Example 105] (H-K([γGlu-γGlu-C20 diacid])CNTATCATQRLAEFLRHSSPNFGAIPSSTNVGRETY-NH2; disulfide 2-7; N-terminus assumed)

# Further lines, the compound ahead of its results:
row,SMILES,EC50 [nM]
1,CC[C@H](C)[C@H](NC(=O)[C@H](C)NC(=O)CNC(=O)[C@H](Cc1ccccc1)NC(=O)[C@H](CC(N)=O)NC(=O)[C@@H]1CCCN1C(=O)[C@H](CO)NC(=O)[C@H](CO)NC(=O)[C@H](Cc1c[nH]cn1)NC(=O)[C@H](CCCNC(=N)N)NC(=O)[C@H](CC(C)C)NC(=O)[C@H](Cc1ccccc1)NC(=O)[C@H](C)NC(=O)[C@H](C)NC(=O)[C@H](CC(C)C)NC(=O)[C@H](CCCNC(=N)N)NC(=O)[C@H](CCC(N)=O)NC(=O)[C@@H](NC(=O)[C@H](C)NC(=O)[C@@H]1CSSC[C@H](NC(=O)[C@@H](N)CCCCNC(=O)CC[C@H](NC(=O)CCCCCCCCCCCCCCCCCCC(=O)O)C(=O)O)C(=O)N[C@@H](CC(N)=O)C(=O)N[C@@H]([C@@H](C)O)C(=O)N[C@@H](C)C(=O)N[C@@H]([C@@H](C)O)C(=O)N1)[C@@H](C)O)C(=O)N1CCC[C@H]1C(=O)N[C@@H](CO)C(=O)N[C@@H](CO)C(=O)N[C@H](C(=O)N[C@@H](CC(N)=O)C(=O)N[C@H](C(=O)NCC(=O)N1CCC[C@H]1C(=O)N[C@@H](CC(N)=O)C(=O)N[C@H](C(=O)N[C@@H](Cc1ccc(O)cc1)C(N)=O)[C@@H](C)O)C(C)C)[C@@H](C)O [Example 94] (H-K([γGlu-C20 diacid])CNTATCATQRLAAFLRHSSPNFGAIPSSTNVGPNTY-NH2; disulfide 2-7 (inferred)),0.316
2,CC[C@H](C)[C@H](NC(=O)[C@H](C)NC(=O)CNC(=O)[C@H](Cc1ccccc1)NC(=O)[C@H](CC(N)=O)NC(=O)[C@@H]1CCCN1C(=O)[C@H](CO)NC(=O)[C@H](CO)NC(=O)[C@H](Cc1c[nH]cn1)NC(=O)[C@H](CCCNC(=N)N)NC(=O)[C@H](CC(C)C)NC(=O)[C@H](Cc1ccccc1)NC(=O)[C@H](CC(=O)O)NC(=O)[C@H](C)NC(=O)[C@H](CC(C)C)NC(=O)[C@H](CCCNC(=N)N)NC(=O)[C@H](CCC(N)=O)NC(=O)[C@@H](NC(=O)[C@H](C)NC(=O)[C@@H]1CSSC[C@H](NC(=O)[C@H](CCCCN)NC(=O)CC[C@H](NC(=O)CCCCCCCCCCCCCCCCCCC(=O)O)C(=O)O)C(=O)N[C@@H](CC(N)=O)C(=O)N[C@@H]([C@@H](C)O)C(=O)N[C@@H](C)C(=O)N[C@@H]([C@@H](C)O)C(=O)N1)[C@@H](C)O)C(=O)N1CCC[C@H]1C(=O)N[C@@H](CO)C(=O)N[C@@H](CO)C(=O)N[C@H](C(=O)N[C@@H](CC(N)=O)C(=O)N[C@H](C(=O)NCC(=O)N[C@@H](CO)C(=O)N[C@@H](CC(N)=O)C(=O)N[C@H](C(=O)N1CCC[C@H]1C(N)=O)[C@@H](C)O)C(C)C)[C@@H](C)O [Example 10] ({C20 diacid-γGlu}-KCNTATCATQRLADFLRHSSPNFGAIPSSTNVGSNTP-NH2; disulfide 2-7 (inferred)),0.07
3,CC[C@H](C)[C@H](NC(=O)[C@H](C)NC(=O)CNC(=O)[C@H](Cc1ccccc1)NC(=O)[C@H](CC(N)=O)NC(=O)[C@@H]1CCCN1C(=O)[C@H](CO)NC(=O)[C@H](CO)NC(=O)[C@H](Cc1c[nH]cn1)NC(=O)[C@H](CCCNC(=N)N)NC(=O)[C@H](CC(C)C)NC(=O)[C@H](Cc1ccccc1)NC(=O)[C@H](CCC(=O)O)NC(=O)[C@H](C)NC(=O)[C@H](CC(C)C)NC(=O)[C@H](CCCNC(=N)N)NC(=O)[C@H](CCC(N)=O)NC(=O)[C@@H](NC(=O)[C@H](C)NC(=O)[C@@H]1CSSC[C@H](NC(=O)[C@H](CCCCN)NC(=O)COCCOCCNC(=O)COCCOCCNC(=O)CC[C@H](NC(=O)CCCCCCCCCCCCCCCCCCC(=O)O)C(=O)O)C(=O)N[C@@H](CC(N)=O)C(=O)N[C@@H]([C@@H](C)O)C(=O)N[C@@H](C)C(=O)N[C@@H]([C@@H](C)O)C(=O)N1)[C@@H](C)O)C(=O)N1CCC[C@H]1C(=O)N[C@@H](CO)C(=O)N[C@@H](CO)C(=O)N[C@H](C(=O)N[C@@H](CC(N)=O)C(=O)N[C@H](C(=O)NCC(=O)N[C@@H](CO)C(=O)N[C@@H](CC(N)=O)C(=O)N[C@H](C(=O)N1CCC[C@H]1C(N)=O)[C@@H](C)O)C(C)C)[C@@H](C)O [Example 20] ({C20 diacid-γGlu-AEEA-AEEA}-KCNTATCATQRLAEFLRHSSPNFGAIPSSTNVGSNTP-NH2; disulfide 2-7),0.285
